According to US11319283B2, “Substituted cyclobutylbenzene compounds as indoleamine 2,3-dioxygenase (IDO) inhibitors” (MERCK SHARP & DOHME CORP., priority 2017, dated 2022):

Legend:
Type in all cases: cell-based
TDO = molecular target: T1, TDO (Homo sapiens, UniProt P48775); experiment: TDO Cellular Assay in Frozen SW48 Cells; details: 300 uM L-tryptophan, about 48 hours, fluorescence readout
T1 construct: endogenous in cells; host or cells: SW48 cells (A2780 cells as control with minimal TDO activity)
T1 sequence (P48775 whole entry): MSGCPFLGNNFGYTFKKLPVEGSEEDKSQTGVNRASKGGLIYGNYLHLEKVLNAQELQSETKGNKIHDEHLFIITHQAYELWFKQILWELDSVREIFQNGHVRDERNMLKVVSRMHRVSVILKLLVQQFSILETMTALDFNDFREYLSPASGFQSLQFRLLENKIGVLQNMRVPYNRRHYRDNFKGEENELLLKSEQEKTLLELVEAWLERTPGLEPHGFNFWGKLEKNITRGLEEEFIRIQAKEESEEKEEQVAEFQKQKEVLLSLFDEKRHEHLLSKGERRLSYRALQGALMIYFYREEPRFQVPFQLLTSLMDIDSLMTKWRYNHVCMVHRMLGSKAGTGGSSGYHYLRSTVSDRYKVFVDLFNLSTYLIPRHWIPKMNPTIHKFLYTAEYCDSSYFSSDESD
Method in brief: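 SW48 cells in RPMI with 300 uM L-tryptophan were incubated ~48 h at 37° C with compounds in ten 3-fold dilutions. Signal was corrected for A2780 background and normalised to DMSO-only SW48 wells, with IC50 from a four-parameter logistic fit.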

IDO1 [1] = molecular target: T2, IDO1 (Homo sapiens, UniProt P14902); experiment: IDO1 Cellular Assay in Hela Cells Stimulated with IFNγ; set-up: endogenous in cells; host or cells: HeLa cells stimulated with IFNγ (100 ng/mL); details: Hela cells stimulated with IFNγ 100 ng/mL, 300 uM L-tryptophan, about 48 hours, fluorescence readout
T2 sequence (P14902 whole entry): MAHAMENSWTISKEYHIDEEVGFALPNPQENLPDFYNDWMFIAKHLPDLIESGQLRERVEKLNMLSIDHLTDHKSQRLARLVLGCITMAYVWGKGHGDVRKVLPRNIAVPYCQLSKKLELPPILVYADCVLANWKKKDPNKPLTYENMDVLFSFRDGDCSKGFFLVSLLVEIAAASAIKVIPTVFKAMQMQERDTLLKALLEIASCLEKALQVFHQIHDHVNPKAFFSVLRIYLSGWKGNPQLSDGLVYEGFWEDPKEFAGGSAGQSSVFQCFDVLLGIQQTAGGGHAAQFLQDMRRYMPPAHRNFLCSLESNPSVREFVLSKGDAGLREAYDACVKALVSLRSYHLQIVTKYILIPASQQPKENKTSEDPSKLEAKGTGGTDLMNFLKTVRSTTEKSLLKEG
Method in brief: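 HeLa cells with 300 uM L-tryptophan, IFNγ-stimulated (unstimulated cells as max-effect control), exposed to compound (ten 3-fold dilutions) for about 48 h at 37 °C. IC50 by four-parameter logistic fit.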

IDO1 [2] = molecular target: T2, IDO1; experiment: IDO1 Human Whole Blood Assay; set-up: from tissue; host or cells: human whole blood from healthy donors, stimulated with LPS and IFNγ; details: LPS and IFNγ 100 ng/mL, overnight (18 h), kynurenine by LC/MS/MS
Method: IDO1 Human Whole Blood Assay
Compounds to be tested were serially diluted in ten 3-fold steps in DMSO starting from 10 mM. […] LPS and IFNγ was prepared in RPMI to a 10× of final conc. (1000 ng/mL), final concentration is 100 ng/mL.
Human whole blood was drawn in sodium heparin coated tubes from healthy internal donors. […] of blood was transferred to each of the wells of a v-bottom 96 well plate. […] of compound was transferred from intermediate dilution plate, and incubated for 15 min. 30 μL from stimulants was then transferred to blood and mixed thoroughly. Plate was covered with breathable membrane and incubated at 37° C. for overnight (18 h).
On day 2 isotope labeled standard of kynurenine and tryptophan was made in water at 10× concentration and […] was added to the blood at […] final concentration. The assay plates were centrifuged at 300×G for 10 min with no brake to separate plasma from red blood cells. […] of plasma samples was removed without disturbing red blood cells. Plasma was diluted with RPMI in 1:1 ratio and proteins were precipitated out with two volume of Acetonitrile. The plates was centrifuged at 4000×G for 60 min. 20 mL of supernatant was carefully transferred to a 384 well plate contain 40 mL of 0.1% formic acid in water and analyzed by LC/MS/MS.
LC/MS/MS analyses were performed using Thermo Fisher's LX4-TSQ Quantum Ultra system. This system consists of four Agilent binary high-performance liquid chromatography (HPLC) pumps and a TSQ Quantum Ultra triple quadruple MS/MS instrument. For each sample, […] were injected onto an Atlantis T3 column (2.1 mm×150 mm, […]) from Waters. The mobile phase gradient pumped at 0.8 mL/min was used to elute the analytes from the column at 25° C. […] Mobile phase A consisted of 0.1% formic acid in water. Mobile phase B consisted of 0.1% of formic acid in acetonitrile. Data was acquired in positive mode using a HESI interface. The operational parameters for the TSQ Quantum Ultra instrument were a spray voltage of 4000 V, capillary temperature of 380° C., vaporizer temperature 400° C., shealth gas 60 arbitrary units, Aux gas 20 arbitrary units, tube lens 85 and collision gas 1.2 mTorr. […] The peak area was integrated by Xcalibur Quan software. The ratios between the kynurenine generated in the reaction and 2D6-Kynurenine spiked-in internal standard were used to generate percentage inhibition and IC50 values. Compounds were titrated and IC50's were calculated by 4 parameter sigmoidal curve fitting formula.

IDO1 [3] = molecular target: T2, IDO1; experiment: IDO1 HEK293 Cellular Assay; details: HEK293 cells transfected with Flag-IDO1 vector, 20-24 hours, fluorescence readout
Method: IDO1 HEK293 Cellular Assay
Compounds to be tested were serially diluted in ten 3-fold steps in DMSO starting from 10 mM DMSO stocks. Compound dilutions or DMSO alone were then dispensed from the dilution plate into a Greiner black 384-well assay plate (catalog #781086) using an Echo 550 acoustic liquid handler (Labcyte).
HEK293 cell pellets were resuspended to 5×10^5 cells/mL in complete HEK293 culture media (89% DMEM, 10% FBS, 1% penicillin/streptomycin). Suspended cells (2 mL) were dispensed into each well of a 6-well Corning plate (Catalog #3516). Cells were allowed to attach and were incubated for 20 hours at 37° C. in a 5% CO2 incubator. Flag-IDO1 vector (Genscript True ORF Gold, 2 ug) in 150 uL of Opti-MEM medium was added to each well of a Corning 24 well plate (Cat #3527) and incubated for 5 minutes at room temperature. To each well of the 24-well plate was added […] Lipofectamine 2000 (Gibco) and the plate incubated at room temperature for 20-30 minutes. To each well of attached cells in the 6-well plate, […] of the transfection mix from the 24-well plate was gently added to each well and IDO1 protein was allowed to express for 24-30 hours at 37 degrees Celsius in a 5% CO2 incubator.
Media was removed from the cells which were then washed with 2 mL Dulbecco's phosphate-buffered saline (DPBS). After removal of DPBS, 0.5 mL of TrypLE (Gibco) was added and incubated at 5 minutes until cells lift from the surface of the wells. Complete HEK293 culture media (4 mL) was added to each well and cells were collected and pooled into a conical tube. Cells were pelleted at 200×g for 5 minutes and resuspended in an equal volume of complete DMEM medium. Cells were diluted to 4×10^5 cells per mL in complete HEK293 media. L-Tryptophan was added to give a final concentration of […]. The diluted transfected cells […] or nontransfected cells […] were dispensed into wells of Greiner black 384-well assay plates (catalog #781086) containing previously diluted compounds. The plate is briefly mixed and centrifuged at 200×g for 10 seconds to collect cells at the bottom of the plate. Plates were covered and incubated for 20-24 hours at 37 degrees C. in a 5% CO2 incubator. Afterwards […] of 0.5 M methyl isonipecotate in dimethyl sulfoxide was added to each well, mixed, sealed, and centrifuged at 500 rpm for 10 seconds. Plates were incubated at 37 degrees in a 5% CO2 incubator overnight to develop fluoresence. The plates are allowed to cool and then centrifuged for 1 minute at 1000×g. The resulting fluoresence was measured in an Envision plate reader (Perkin Elmer) with a 400/25 nm excitation filter and an 510/20 nm emission filter.
The fluoresence intensity of each well was corrected for the background observed in wells with untransfected cells and was expressed as a fraction of the intensity observed in wells of IDO1 transfected cells and DMSO only. Potencies were calculated by linear least squares fit to the four parameter logistic IC50 equation.

CC1CC1NC(=O)C1(c2ccc(NC(=O)c3cccc(Cl)c3)cc2)CCC1 (single isomer, unassigned) [Example 21, 3-chloro-N-(4-(1-((2-methylcyclopropyl)carbamoyl)cyclobutyl)phenyl)benzamide] was tested, and the IC50 (TDO) was at least 10000 nM, the IC50 (IDO1 [1]) was 7 nM and the IC50 (IDO1 [2]) was 797 nM.
Compound N#Cc1ccc(C(=O)NC2(c3ccc(NC(=O)c4cccc(Cl)c4)cc3)CCC2)cc1 [Example 2, 3-Chloro-N-(4-(1-(4-cyanobenzamido)cyclobutyl)phenyl)benzamide] has an IC50 (TDO) of at least 10000 nM, an IC50 (IDO1 [1]) of 3 nM and an IC50 (IDO1 [2]) of 186 nM.
Compound O=C(Nc1ccc(C2(NC(=O)c3ccc(Cl)nc3)CCC2)cc1)c1cccc(Cl)c1 [Example 7, 6-chloro-N-(1-{4-[(3-chlorobenzene-1-carbonyl)amino]phenyl}cyclobutyl)pyridine-3-carboxamide] has an IC50 (TDO) of at least 10000 nM, an IC50 (IDO1 [1]) of 4 nM and an IC50 (IDO1 [2]) of 345 nM.
O=C(Nc1ccc(C2(NC(=O)c3ncco3)CCC2)cc1)c1cccc(Cl)c1 [Example 12, N-(1-{4-[(3-chlorobenzene-1-carbonyl)amino]phenyl}cyclobutyl)-1,3-oxazole-2-carboxamide] gave an IC50 (IDO1 [3]) of 16 nM, an IC50 (TDO) of 585 nM and an IC50 (IDO1 [1]) of 28 nM.
O=C(Nc1ccc(C2(NC(=O)c3cscn3)CCC2)cc1)c1cccc(Cl)c1 [Example 14, N-(1-{4-[(3-chlorobenzene-1-carbonyl)amino]phenyl}cyclobutyl)-1,3-thiazole-4-carboxamide] gave an IC50 (IDO1 [3]) of 23 nM, an IC50 (TDO) of 1210 nM and an IC50 (IDO1 [1]) of 39 nM.
O=C(Nc1ccc(C2(NC(=O)c3nccs3)CCC2)cc1)c1cccc(Cl)c1 [Example 15, N-(1-{4-[(3-chlorobenzene-1-carbonyl)amino]phenyl}cyclobutyl)-1,3-thiazole-2-carboxamide] gave an IC50 (IDO1 [3]) of 14 nM, an IC50 (TDO) of 2510 nM and an IC50 (IDO1 [1]) of 53 nM.
Work on O=C(Nc1ccc(C2(NC(=O)c3ccc(Cl)cc3)CCC2)cc1)c1cncnc1 [Example 17, N-(4-{1-[(4-chlorobenzene-1-carbonyl)amino]cyclobutyl}phenyl)pyrimidine-5-carboxamide] yielded an IC50 (IDO1 [3]) of 125 nM, an IC50 (TDO) of at least 10000 nM and an IC50 (IDO1 [1]) of 108 nM.
With O=C(Nc1ccc(C2(NC(=O)c3cncnc3)CCC2)cc1)c1cccc(Cl)c1 [Example 18, N-(1-{4-[(3-chlorobenzene-1-carbonyl)amino]phenyl}cyclobutyl)pyrimidine-5-carboxamide] the IC50 (IDO1 [3]) was 92 nM, the IC50 (TDO) was at least 10000 nM and the IC50 (IDO1 [1]) was 92 nM.
Compound O=C(Nc1ccc(C2(NC(=O)c3ccc(Cl)cc3)CCC2)cc1)c1cccc(Cl)c1 [Example 19, 3-Chloro-N-(4-(1-(4-chlorobenzamido)cyclobutyl)phenyl)benzamide] has an IC50 (TDO) of at least 10000 nM, an IC50 (IDO1 [1]) of 2 nM and an IC50 (IDO1 [2]) of 336 nM.
In the case of O=C(Nc1ccc(C2(C(=O)Nc3ccc(F)cn3)CCC2)cc1)c1cccc(Cl)c1 [Example 28, 3-chloro-N-(4-{1-[(5-fluoropyridin-2-yl)carbamoyl]cyclobutyl}phenyl)benzamide], the IC50 (TDO) is reported as at least 10000 nM, the IC50 (IDO1 [1]) is reported as 4 nM and the IC50 (IDO1 [2]) is reported as 253 nM.
O=C(Nc1ccc(C2(C(=O)NC3CCCCC3)CCC2)cc1)c1cccc(Cl)c1 [Example 30, 3-chloro-N-{4-[1-(cyclohexylcarbamoyl)cyclobutyl]phenyl} benzamide] showed an IC50 (TDO) of at least 10000 nM, an IC50 (IDO1 [1]) of 5 nM and an IC50 (IDO1 [2]) of 795 nM.
Work on O=C(Nc1ccc(C2(C(=O)N[C@@H]3C[C@H]3C(F)(F)F)CCC2)cc1)c1cccc(Cl)c1 [Example 32] yielded an IC50 (TDO) of at least 10000 nM, an IC50 (IDO1 [1]) of 12 nM and an IC50 (IDO1 [2]) of 738 nM.
For O=C(Nc1ccc(C2(C(=O)NC3CCC(F)(F)CC3)CCC2)cc1)c1cccc(Cl)c1 [Example 33, 3-chloro-N-(4-{1-[(4,4-difluorocyclohexyl)carbamoyl]cyclobutyl}phenyl) benzamide], the IC50 (TDO) was at least 10000 nM, the IC50 (IDO1 [1]) was 15 nM and the IC50 (IDO1 [2]) was 1880 nM.
Work on Cn1ccc(NC(=O)C2(c3ccc(NC(=O)c4cccc(Cl)c4)cc3)CCC2)n1 [Example 35, 3-chloro-N-(4-{1-[(1-methyl-1H-pyrazol-3-yl)carbamoyl]cyclobutyl}phenyl)benzamide] yielded an IC50 (TDO) of at least 10000 nM, an IC50 (IDO1 [1]) of 24 nM and an IC50 (IDO1 [2]) of 1600 nM.
With O=C(Nc1ccc(C2(C(=O)Nc3ccc(F)cc3)CC(F)(F)C2)cc1)c1cccc(Cl)c1 [Example 63, 3-chloro-N-(4-(3,3-difluoro-1-((4-fluorophenyl)carbamoyl)cyclobutyl)phenyl)benzamide] the IC50 (TDO) was at least 10000 nM, the IC50 (IDO1 [1]) was 2 nM and the IC50 (IDO1 [2]) was 70 nM.
In the case of O=C(Nc1ccc(C2(C(=O)Nc3ccc(F)cn3)CCC2)cc1CO)c1cccc(Cl)c1 [Example 85, 3-chloro-N-[4-{1-[(5-fluoropyridin-2-yl)carbamoyl]cyclobutyl}-2-(hydroxymethyl)phenyl] benzamide], the IC50 (TDO) is reported as at least 10000 nM, the IC50 (IDO1 [1]) is reported as 5 nM and the IC50 (IDO1 [2]) is reported as 219 nM.
In the case of N#Cc1cccc(C(=O)Nc2ccc(C3(C(=O)Nc4ccc(Cl)nc4)CCC3)cc2)c1 [Example 88, N-(4-{1-[(6-chloropyridin-3-yl)carbamoyl]cyclobutyl}phenyl)-3-cyanobenzamide], the IC50 (TDO) is reported as at least 10000 nM, the IC50 (IDO1 [1]) is reported as 2 nM and the IC50 (IDO1 [2]) is reported as 57 nM.
